The values below come from patent publication US9376700B2, “Methods of modifying N-termini of a peptide or protein using transferases” (The Trustees of the University of Pennsylvania, priority 2012, dated 2016).

What all share (type): biochemical
Test [1] deals with T1, E. coli aminoacyl tRNA transferase (AaT) (Escherichia coli, UniProt P0A8P1).
T1 construct: made in house; host or cells: E. coli BL21-Gold (DE3), plasmid pEG6, Ni-NTA purified
The experiment in a line: AaT-catalyzed α-casein N-terminal modification (Edman degradation, tryptic digest MALDI MS). Conditions: double addition of donor. As to the method: HEPES pH 8.0, 1.50 mM KO, 10 mM MgCl2) and AaT (0.05 mg). The reaction mixture was incubated at 37° C. for 12 h, AaT was removed using Ni^2+ resin (Ni-NTA Superflow, Qiagen), and then buffer exchanged four times into phosphate buffered saline (PBS, 12 mM NaH2PO4, 50 mM NaCl, 4.7 mM KCl, pH 8.0) by Spectra/Por 1 dialysis tubing (Spectrum Laboratories; Rancho Dominguez, Calif.). Azf-modified α-casein was used directly after buffer exchange into PBS. Aliquots (1 nmol) of α-casein were diluted into PBS (22 μL) containing either fluorescein-alkyne (FlAlk, 91 μM) or propargylamine (Alk, 227 μM) for copper-catalyzed azide-alkyne cycloaddition (CuAAC). […] Reactions were boiled with gel loading dye LDS (Pierce; Rockford, Ill.) for 10 min at 95° C. and analyzed by SDS-PAGE. Fluorescence images were obtained with a Geldoc (BioRAD; Hercules, Calif.) using an excitation wavelength of 302 nm for detection of fluorescein. α-Casein was also directly visualized by Coomassie Brilliant Blue staining.
α-Casein-Azf (33 or α-casein (33 μg) was digested with sequencing grade modified Trypsin (0.6 μg) in 27 μL of 25 mM ammonium bicarbonate pH 7.5 (freshly prepared). Digestions were carried out at 37° C. for 14 h. Trypsin digest aliquots (1 μL) were combined with α-cyano-4-hydroxycinnamic acid (1 μL of a saturated solution in 1:1 H2O/CH3CN with 1% TFA) and analyzed by MALDI MS. […]

The target in test [2] is T1, E. coli aminoacyl tRNA transferase (AaT). Put plainly: α-Casein labeling in cleared E. coli cell lysate with unpurified AaT, then click reaction with FlAlk. The following applies: fluorescence after labeling with FlAlk. As to the method: AaT was expressed in E. coli BL21-Gold (DE3) cells as previously described. A cleared cell lysate was obtained by centrifugation following cell lysis using sonication. Protein were modified in a final reaction volume of 110 μL with Azf-A (4c, 3 mM) using AaT (25 from cleared lysate in AaT buffer (50 mM HEPES pH 8.0, 150 mM KCl, 10 mM MgCl2). α-Casein (0.012 mg or 0.12 mg) was added to the reaction and incubated at 37° C. for 2 h, after 1 h an additional 0.3 μmole of 4c was added. For control reactions, equivalent volumes were replaced with water. Excess 4c was removed by buffer exchange four times against phosphate buffered saline (PBS, 12 mM NaH2PO4, 50 mM NaCl, 4.7 mM. KCl, pH 8.0) by Spectra/Por 1 dialysis tubing. Aliquots (18 μL) of 4c modified lysates were diluted to a final volume of 22 pit using PBS containing FlAlk (182 μM) for copper-catalyzed “click” reactions. The “click” reaction was initiated by addition of CuSO4 (100 μM), THPTA (500 μM), and sodium ascorbate (5 mM). The reaction mixtures were analyzed by PAGE gel using Coomassie staining and fluorescence as above.
After AaT-catalyzed modification of α-casein with Azf, residual 4c was removed by dialysis. […] Azf transfer was successful, as shown by the observation of fluorescence after labeling with FlAlk.

Test [3] concerns the target E. coli aminoacyl transferase (AaT) (Escherichia coli, UniProt P0A8P1). Put plainly: LysAlaAcm ligation assay: AaT-catalyzed transfer from aminoacyl adenosine donor to LysAlaAcm, HPLC at 325 nm. On the set-up: made in house; host or cells: E. coli BL21-Gold (DE3), plasmid pEG6, Ni-NTA purified. The following applies: single addition of 1 mM donor, 100 μM LysAlaAcm, 2.26 μM AaT, 37° C., 4 h, no additive. As to the method: Each ligation reaction, 125 μL total volume, contained the following reagents: aminoacyl adenosine donor (1 mM), recombinant His10-tagged E. coli aminoacyl transferase (2.26 μM), and LysAlaAcm (100 μM) in the AaT Ligation Buffer (50 mM HEPES pH 8.0, 150 mm KCl, 10 mM MgCl2). The reaction mixtures were incubated at 37° C. for four hours and quenched with 1% acetic acid. The proteins were extracted from the reactions via acetone precipitation. The reactions were precipitated using 4× reaction volume of acetone and cooled at −20° C. for 1 h. Next, the reactions were centrifuged at 13,200 rpm at 4° C. for 20 min to separate the reaction from precipitated protein. The supernatant was transferred to fresh 1.5 mL centrifuge tubes and allowed for acetone evaporation overnight at room temperature. After acetone evaporation, the supernatant was dried in a Speedvac (Savant, Thermo Scientific, Fisher Inc.) for 30 min to remove residual acetone. The resulting reaction volume was dissolved up to 1.2 mL using Milli-Q water and analyzed by HPLC (gradient below) to determine ligation yield by integration of separated peak intensities monitored at 325 nm. Collected HPLC fractions were characterized through MALDI MS analysis. […] Reactions using Phe-pdCpA as donor were carried out in an identical fashion (Ellman, et al., 1991, Methods Enzymol. 202:301-336).
All HPLC analyses of LysAlaAcm ligations were monitored on an Agilent HPLC using a Waters C18 column (Milford, Mass.).
All HPLC analyses of LysAlaAcm ligations were monitored as described elsewhere herein (Gradient 1).
The extent of transfer was evaluated by HPLC analysis of reactions with adenosyl donor, AaT or BpT, and an aminocoumarin-labeled reporter peptide (for AaT, LysAlaAcm was used as previously described by Tirrell and co-workers; for BpT, AspAlaAcm was used in an analogous fashion) (Connor et al., 2008, ChemBioChem 9:366-369). Monitoring LysAlaAcm or AspAlaAcm acylation in crude reaction mixtures using absorbance at 325 nm conveniently eliminates background due to other proteins and nucleic acids, although some non-natural amino acids such as naphthylalanine (Nap) and methoxycoumarinylalanine (Mcm) also absorb in this range.
To evaluate substrate scope, reactions were analyzed after 4 h, when transfer should be complete for the fully enzymatic reaction with Phe tRNA synthetase (Connor et al., 2008, ChemBioChem 9:366-369).

T1 sequence (P0A8P1 whole entry): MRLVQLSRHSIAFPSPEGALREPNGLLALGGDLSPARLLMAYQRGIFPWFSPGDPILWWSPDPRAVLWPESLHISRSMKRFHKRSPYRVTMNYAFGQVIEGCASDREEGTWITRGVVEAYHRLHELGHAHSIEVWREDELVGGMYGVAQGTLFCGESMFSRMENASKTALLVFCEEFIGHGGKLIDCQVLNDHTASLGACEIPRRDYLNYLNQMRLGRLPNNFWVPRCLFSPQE
Sequence of E. coli aminoacyl transferase (AaT) (P0A8P1 whole entry): as above

With `[N-]=[N+]=Nc1ccc(C[C@H](N)C(=O)O[C@@H]2[C@H](O)[C@@H](CO)O[C@H]2n2cnc3c(N)ncnc32)cc1` [4c, (S)-(2R,3R,4R,5R)-2-(6-amino-9H-purin-9-yl)-4-hydroxy-5-(hydroxymethyl)tetrahydrofuran-3-yl 2-amino-3-(4-azidophenyl)propanoate], the “Conversion of α-casein, trypsin digest and MALDI MS” value in test [1] is on record as “Complete conversion”. The “Azf transfer to α-casein in crude E. coli lysate with unpurified AaT” value in test [2] is reported as “successful”. Besides, the “Ligated Product Yield (%)” value in test [3] worked out at 78.5 ± 5.2%.
